Results published in patent US9161989B2, “Cupredoxin derived transport agents and methods of use thereof” (priority 2004, dated 2015).
Like-named read-outs stand apart in the source and are kept apart here.

Test system: UISO-MeI-2 cells
Assay type: cell-based

Compound	Effect on uptake of azurin in UISO-MeI-2 cells	Effect on uptake of azurin in UISO-MeI-2 cells (20 pM)
C[C@H]1CCC/C=C/[C@@H]2C[C@H](O)C[C@H]2[C@H](O)/C=C/C(=O)O1 [Brefeldin A]	no significant effect	–
C=C1[C@@H](C)[C@H]2[C@H](Cc3ccccc3)NC(=O)[C@]23[C@H](OC(C)=O)/C=C/[C@@](C)(O)C(=O)[C@@H](C)C/C=C/[C@H]3[C@@H]1O [cytochalasin D]	significantly reduced	–
carbonyl cyanide m-chlorophrnylhydrazone [CCCP]	–	significantly reduced
